Source: the supplement of paper PMC10307832

Legend:
Assay in all cases: relative viability (nuclei count vs DMSO), 5 days (fraction); higher = more cells survive
[1] = compound: CN[C@@H]1C[C@H]2O[C@@](C)([C@@H]1OC)n1c3ccccc3c3c4c(c5c6ccccc6n2c5c31)C(=O)NC4 [Staurosporine] + Nc1ncn([C@H]2C[C@H](O)[C@@H](CO)O2)c(=O)n1 [Decitabine] (partner 2 µM)
Method in brief: (§1)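 Five library-drug doses in √10 steps were combined with a fixed anchor-drug dose, or a single drug was given alone, by pin tool to lung cancer cell lines in 1536-well plates the day after seeding. Nuclei were stained and counted after 5 days. Relative viability is the nuclei count in treated wells over that in vehicle wells, taken as the median of duplicate plates.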

[2] = compound: O=c1[nH]cc(F)c(=O)[nH]1 [5-Fluorouracil] + CCNC(=O)c1noc(-c2cc(C(C)C)c(O)cc2O)c1-c1ccc(CN2CCOCC2)cc1 [Luminespib] (partner 0.01 µM)
Method in brief: as §1

[3] = compound: CC1=C(CC(=O)O)c2cc(F)ccc2/C1=C\c1ccc([S+](C)[O-])cc1 [Sulindac] + CC(C)C[C@H](NC(=O)[C@H](Cc1ccccc1)NC(=O)c1cnccn1)B(O)O [Bortezomib] (partner 0.002 µM)
Method in brief: as §1

[4] = compound: CC1=C(CC(=O)O)c2cc(F)ccc2/C1=C\c1ccc([S+](C)[O-])cc1 [Sulindac] + C[C@@H](Oc1cc(-c2cnn(C3CCNCC3)c2)cnc1N)c1c(Cl)ccc(F)c1Cl [Crizotinib] (partner 1 µM)
Method in brief: as §1

| Cell Line | relative viability ([1]; first compound 0.005 µM) | relative viability ([1]; first compound 0.01581 µM) | relative viability ([1]; first compound 0.05 µM) | relative viability ([1]; first compound 0.1581 µM) | relative viability ([1]; first compound 0.5 µM) | relative viability ([2]; first compound 0.02 µM) | relative viability ([2]; first compound 0.2 µM) | relative viability ([2]; first compound 0.6325 µM) | relative viability ([2]; first compound 2 µM) | relative viability ([3]; first compound 0.08 µM) | relative viability ([3]; first compound 0.253 µM) | relative viability ([3]; first compound 2.53 µM) | relative viability ([3]; first compound 8 µM) | relative viability ([4]; first compound 0.08 µM) | relative viability ([4]; first compound 0.253 µM) | relative viability ([4]; first compound 0.8 µM) | relative viability ([4]; first compound 8 µM) | relative viability ([4]; first compound 2.53 µM) | relative viability ([3]; first compound 0.8 µM) |
| --- | --- | --- | --- | --- | --- | --- | --- | --- | --- | --- | --- | --- | --- | --- | --- | --- | --- | --- | --- |
| LCLC-97TM1 | 0.257 | 0.198 | 0.217 | 0.217 | 0.223 | 0.627 | 0.808 | 0.613 | 0.334 | 0.861 | 0.946 | 0.788 | 0.806 | 0.435 | 0.373 | 0.319 | 0.418 | – | – |
| COR-L23 | 0.362 | 0.248 | 0.193 | 0.092 | 0.0806 | 0.86 | 0.691 | 0.512 | 0.168 | 1.17 | 1.14 | 1.2 | 1.23 | 0.711 | 0.783 | – | 0.82 | 0.613 | – |
| NCI-H1355 | 0.389 | 0.293 | 0.281 | 0.234 | 0.152 | 0.644 | 0.57 | 0.287 | 0.246 | 1.27 | 1.23 | 1.24 | 1.3 | 1.27 | 1.15 | 0.954 | 1.11 | 1.07 | 1.12 |
| EPLC-272H | 0.367 | 0.193 | 0.203 | 0.102 | 0.0597 | 0.313 | 0.296 | 0.208 | 0.198 | 1.05 | – | 1.12 | 0.813 | 0.932 | – | 0.948 | 0.977 | 0.551 | 0.603 |
| ChaGo-K-1 | 0.641 | – | 0.544 | 0.435 | 0.432 | 0.6 | 0.513 | 0.406 | 0.358 | 1.07 | 1.1 | 0.882 | 1.35 | 1.34 | 1.17 | 0.769 | 1.31 | 1.28 | 0.885 |
| NCI-H1651 | 0.623 | 0.509 | 0.324 | 0.146 | 0.131 | 1.02 | 0.764 | 0.588 | 0.466 | 1.01 | 0.953 | 0.958 | 1.04 | 0.969 | 0.86 | – | 0.929 | 0.93 | – |
| SW 1573 | 0.227 | 0.15 | 0.135 | 0.0749 | 0.067 | 0.253 | 0.228 | 0.323 | 0.169 | – | 1 | 1.19 | 1.13 | 0.825 | 0.742 | 0.766 | 0.867 | 0.869 | – |
| HCC-44 | 0.937 | – | 0.661 | 0.302 | 0.275 | 1.29 | 1.22 | 0.853 | 0.355 | 0.89 | 0.882 | 0.904 | 0.966 | 0.892 | 0.88 | 0.768 | 0.861 | 0.9 | 0.853 |
| NCI-H460 | 0.397 | 0.308 | 0.175 | 0.0228 | 0.0211 | 0.0365 | 0.0336 | 0.0342 | 0.0284 | – | 1.19 | 1.12 | 1.67 | 1.41 | 1.07 | – | 1.19 | 0.833 | – |
| SK-LU-1 | 0.331 | 0.232 | 0.212 | 0.229 | 0.154 | 0.196 | 0.216 | 0.231 | 0.193 | 1.7 | 1.07 | 0.906 | 1.8 | 0.844 | 1.22 | 0.781 | 1.26 | 0.975 | – |
| LOU-NH91 | 0.788 | 0.607 | 0.624 | 0.4 | 0.314 | 0.37 | 0.355 | 0.332 | 0.277 | 0.554 | 0.516 | 0.531 | 0.459 | 0.978 | 0.768 | 0.697 | 0.75 | 0.688 | 0.601 |
| RERF-LC-KJ | 0.647 | 0.397 | 0.275 | 0.23 | 0.201 | 1.42 | 1.24 | 1.22 | 0.904 | 1.23 | 1.08 | 1.07 | 1.25 | 0.816 | 0.903 | 0.853 | 0.914 | 0.891 | 0.92 |
| NCI-H2126 | 0.612 | 0.521 | 0.468 | 0.43 | 0.363 | 0.788 | 0.371 | 0.302 | 0.292 | 1.2 | 1.15 | 1.2 | 1.19 | 1.13 | 1.01 | 1.03 | 1.11 | 1.04 | 1.06 |
| LU99A | 0.934 | 0.672 | 0.513 | 0.341 | 0.198 | 0.245 | 0.281 | 0.234 | – | 1.22 | 1.09 | 0.91 | 1.19 | 0.636 | 0.515 | 0.543 | 0.57 | 0.474 | 1.11 |
| BEN | 0.882 | 0.621 | 0.486 | 0.279 | 0.311 | 0.18 | 0.399 | 0.543 | 0.371 | 0.829 | 0.889 | 0.748 | 0.947 | 0.994 | 0.903 | 0.648 | 1.13 | 0.984 | 0.714 |
| NCI-H1666 | 0.685 | 0.522 | 0.559 | 0.476 | 0.454 | 0.992 | 0.639 | 0.419 | 0.44 | – | 0.724 | 0.767 | 0.937 | – | 1.03 | 0.942 | 1.17 | 0.949 | 0.729 |
| NCI-H1993 | 0.665 | 0.604 | 0.573 | 0.44 | 0.354 | 0.768 | 0.682 | 0.664 | 0.595 | 1.11 | 1.1 | 0.945 | 1.29 | 0.848 | 0.862 | 0.747 | 0.83 | 0.86 | 1.03 |
